The text below walks through data of publication PMC9841521, “Subnanomolar Affinity and Selective Antagonism at α7 Nicotinic Receptor by Combined Modifications of 2-Triethylammonium Ethyl Ether of 4-Stilbenol (MG624)” (Journal of Medicinal Chemistry, 2022).

Structures are written as SMILES. Entries after “also recorded” stand apart in the source; their conditions may differ. Read-outs that look alike come from different tables or passages of the source. A value given as a limit tells only on which side of the number the result lay.

The target in one assay is T1, human α4β2-nAChR subtype (Homo sapiens, UniProt P17787+P43681).
T1 construct: expressed in transfected cells; gift of Dr. Jon Lindstrom
The experiment in a line: Competition binding with [3H]epibatidine, membranes of HEK 293 cells stably transfected with α4 and β2. As to conditions: human α4β2 expressed in HEK 293 cells; confidence interval in parentheses; read-out: α4β2-nAChR [3H]-Epi Ki.

Another assay concerns the target T2, human α3β4-nAChR subtype (Homo sapiens, UniProt P30926+P32297).
T2 construct: expressed in transfected cells
The experiment in a line: Competition binding with [3H]epibatidine, membranes of SH-EP1 cells stably transfected with α3 and β4. The conditions noted are these: human α3β4 expressed in SH-EP1 cells; confidence interval in parentheses; read-out: α3β4-nAChR [3H]-Epi Ki.

Assay [1] concerns the target T3, human α9α10-nAChR (Homo sapiens, UniProt Q9GZZ6+Q9UGM1).
T3 construct: expressed in transfected cells; host or cells: Xenopus laevis oocytes (cRNA injection, α9:α10 9:1)
The experiment in a line: Two-electrode voltage clamp, antagonism of currents activated by 1 mM ACh, test compound coapplied, X. laevis oocytes (α9:α10 cRNA 9:1). The format is cell-based. As to conditions: coapplied with 1 mM ACh; for inhibition of ACh-induced α9α10-nAChR function (in words) / IC50: up to 100 μM; for IC50: 95% confidence interval in parentheses. A general note: Two-electrode voltage clamp is typically applied to oocytes expressing channels or transporters.

In assay [2] the target is T3, human α9α10-nAChR. The experiment in a line: Two-electrode voltage clamp, compound applied alone at 100 μM: intrinsic activity, rebound current, residual ACh response. The class given is cell-based. As to conditions: for partial agonism of α9α10-nAChRs, efficacy (AUC) / partial agonism of α9α10-nAChRs, efficacy (peak current): 100 μM pulse, alone, vs 1 mM ACh, range over the named compounds; for recovery of rebound current at α9α10-nAChR (in words): 1 min after test compound; for recovery of rebound current at α9α10-nAChR (in words) / residual ACh-induced current at α9α10-nAChR (in words): Figure 4; for residual ACh-induced current at α9α10-nAChR (in words): final ACh control 1 min after test compound.

The target of assay [3] is T4, human α7-nAChR (Homo sapiens, UniProt P36544). Put plainly: Two-electrode voltage clamp, antagonism of currents activated by 1 mM ACh, test compound coapplied, X. laevis oocytes. The format is cell-based.
For assay [4], the target named is T4, human α7-nAChR. Put plainly: Two-electrode voltage clamp, compound applied alone at 100 μM: intrinsic activity, rebound current, residual ACh response. The format is cell-based. On the set-up: expressed in transfected cells; host or cells: SH-SY5Y neuroblastoma cells (transient). The conditions noted are these: 100 μM pulse, vs 1 mM ACh, range over the named compounds.

The mark [5] stands for this setting: coapplied with 1 mM ACh, up to 100 μM, 95% confidence interval in parentheses, NA = not inhibited even at 100 μM, read-out: α7 IC50 (AUC).
[6] abbreviates: coapplied with 1 mM ACh, up to 100 μM, 95% confidence interval in parentheses, NA = not inhibited even at 100 μM, read-out: α7 IC50 (peak current).

For orientation: Ki means the dissociation constant of the complex between target and ligand, obtained from inhibition or displacement. As to `CC[N+](CC)(CC)CCOc1ccc(-c2ccccc2)cc1` [Compound 5, 2-([1,1′-Biphenyl]-4-yloxy)-N,N,N-triethylethan-1-aminium Iodide], the inhibition constant (Ki) was 11.8 µM on human α4β2-nAChR subtype and 0.44 µM at human α3β4-nAChR subtype.
The IC50 is the point on the concentration scale where inhibition reaches its midpoint. Turning to `CC[N+](CC)(CC)CCOc1ccc(CCc2ccccc2)cc1.[I-]` [Compound 6, N,N,N-Triethyl-2-(4-phenethylphenoxy)ethan-1-aminium Iodide], at human α9α10-nAChR [1], the “inhibition of ACh-induced α9α10-nAChR function (in words)” value was “essentially full inhibition” and the IC50 stood at 9.12 µM. For the same compound, the inhibition constant (Ki) on human α3β4-nAChR subtype is 1.25 µM. At human α9α10-nAChR [2], the “partial agonism of α9α10-nAChRs, efficacy (AUC)” value (shortened to “partial agonism … (AUC)”) is 0.2–3 % of ACh control and the “partial agonism of α9α10-nAChRs, efficacy (peak current)” value is 5–55 % of ACh control. Moreover, the “block of subsequent ACh-induced function at α9α10-nAChRs (in words)” value on human α9α10-nAChR [2] (final 1 mM ACh 1 min after 100 μM compound, Figure 3B) is recorded as “significantly block”. The “inhibition of ACh-induced α7-nAChR function (in words)” value at human α7-nAChR [3] (coapplied with 1 mM ACh, up to 100 μM) was “no inhibition; also recorded: no effect; also recorded: devoid of α7-nAChR antagonism”. In addition, on human α7-nAChR [3] (supplementary CSV), the “alpha7 nAChR IC50 (AUC)” value was “not active” and the “alpha7 nAChR IC50 (peak current)” value is “not active”.
On to `CC[N+](CC)(CC)CCOc1ccc(C#Cc2ccccc2)cc1` [Compound 7, N,N,N-Triethyl-2-(4-(phenylethynyl)phenoxy)ethan-1-aminium Iodide], for which the Ki amounted to 19.4 µM at human α4β2-nAChR subtype and 0.912 µM on human α3β4-nAChR subtype.
In the case of `CC[N+](CC)(CC)CCOc1ccc(-c2ccc3ccccc3c2)cc1` [Compound 8, N,N,N-Triethyl-2-(4-(naphthalen-2-yl)phenoxy)ethan-1-aminium Iodide], the figures for the Ki at human α4β2-nAChR subtype and on human α3β4-nAChR subtype were 1.8 µM and 0.458 µM, respectively.
With `CC[N+](CC)(CC)CCOc1ccc(/C=C/c2cccc(C(F)(F)F)c2)cc1` [Compound 15, (E)-N,N,N-Triethyl-2-(4-(3-(trifluoromethyl)styryl)phenoxy)ethan-1-aminium Iodide], the Ki was determined as 21.8 µM on human α4β2-nAChR subtype and 1.41 µM on human α3β4-nAChR subtype.
In the case of `CC[N+](CC)(CC)CCOc1ccc(/C=C/c2ccc(C(F)(F)F)cc2)cc1` [Compound 16, (E)-N,N,N-Triethyl-2-(4-(4-(trifluoromethyl)styryl)phenoxy)ethan-1-aminium Iodide], the inhibition constant Ki on human α4β2-nAChR subtype was 10.4 µM; at human α3β4-nAChR subtype it was 0.874 µM.
In the same order, the values of `CC[N+](CC)(CC)CCOc1ccc(/C=C/c2cccc(O)c2)cc1` [Compound 19, (E)-N,N,N-Triethyl-2-(4-(3-hydroxystyryl)phenoxy)ethan-1-aminium Iodide] are 10.1 µM and 0.998 µM.
Consider `CC[N+](CC)(CC)CCOc1ccc(/C=C/c2ccc(O)cc2)cc1` [Compound 20, (E)-N,N,N-Triethyl-2-(4-(4-hydroxystyryl)phenoxy)ethan-1-aminium Iodide], for which the Ki worked out at 9.82 µM at human α4β2-nAChR subtype and 0.873 µM at human α3β4-nAChR subtype.
Regarding `CC[N+](CC)(CC)CCOc1ccc(/C=C/c2cc(OC)cc(OC)c2)cc1` [Compound 21], the Ki at human α4β2-nAChR subtype was found to be 1.2 µM; at human α3β4-nAChR subtype, 0.676 µM.
Consider `CC[N+](CC)(CC)CCOc1ccc(/C=C/c2cc(O)cc(O)c2)cc1` [Compound 22, (E)-2-(4-(3,5-Dihydroxystyryl)phenoxy)-N,N,N-triethylethan-1-aminium Iodide], for which the Ki was 7.24 µM at human α4β2-nAChR subtype and 0.793 µM at human α3β4-nAChR subtype.
`CC[N+](CC)(CC)CCOc1ccc(NC(=O)c2ccccc2)cc1` [Compound 25, 2-(4-Benzamidophenoxy)-N,N,N-triethylethan-1-aminium Iodide]: the Ki on human α4β2-nAChR subtype was 4.5 µM; on human α3β4-nAChR subtype it was 1.07 µM. Also, the values for the IC50 at human α9α10-nAChR [1], at human α7-nAChR [3] (setting [5]) and on human α7-nAChR [3] (setting [6]) were 115 µM, 26.9 µM and 25.7 µM, respectively.
`CC[N+](CC)(CC)CCOc1ccc(C(=O)Nc2ccccc2)cc1` [Compound 26, N,N,N-Triethyl-2-(4-(phenylcarbamoyl)phenoxy)ethan-1-aminium Iodide]: the inhibition constant (Ki) at human α4β2-nAChR subtype came to 23 µM; on human α3β4-nAChR subtype, 0.113 µM. Further, the IC50 is 75.9 µM on human α9α10-nAChR [1]; more than 100 µM on human α7-nAChR [3] (setting [5]); more than 100 µM at human α7-nAChR [3] (setting [6]); more than 100 µM on human α7-nAChR [3] (supplementary CSV, read-out: alpha7 nAChR IC50 (AUC)); more than 100 µM at human α7-nAChR [3] (supplementary CSV, read-out: alpha7 nAChR IC50 (peak current)).
As to `CC[N+](CC)(CC)CCOc1ccc(-c2nc3ccccc3o2)cc1.[I-]` [Compound 28, 2-(4-(Benzo[d]oxazol-2-yl)phenoxy)-N,N,N-triethylethan-1-aminium Iodide], at human α9α10-nAChR [1], the IC50 worked out at 72.4 µM. The Ki on human α3β4-nAChR subtype came to 0.653 µM. For the same compound, at human α9α10-nAChR [2], the “partial agonism … (AUC)” value was 0.2–3 % of ACh control; the “partial agonism of α9α10-nAChRs, efficacy (peak current)” value is on record as 5–55 % of ACh control; the “recovery of rebound current at α9α10-nAChR (in words)” value is given as “almost complete recovery”; the “residual ACh-induced current at α9α10-nAChR (in words)” value is reported as “highest residual ACh-induced currents”. Further, the IC50 on human α7-nAChR [3] (setting [5]) was 2.25 µM. Moreover, at human α7-nAChR [3] (setting [6]), the IC50 was determined as 1.78 µM. The “partial agonism at α7-nAChR, efficacy compared to ACh control (peak current)” value at human α7-nAChR [4] is recorded as 15–50%.
Turning to `C[N+]1(C)CC[C@@H](Oc2ccc(-c3ccc4[nH]ccc4c3)cc2)C1.[I-]` [Compound 33, (R)-3-(4-(1H-Indol-5-yl)phenoxy)-1,1-dimethylpyrrolidin-1-ium Iodide], the Ki at human α4β2-nAChR subtype is 5.1 µM. Moreover, on human α9α10-nAChR [1], the “inhibition of ACh-induced α9α10-nAChR function (in words)” value is “complete or nearly complete inhibition” and the IC50 came out at 15.9 µM. The “inhibition of ACh-induced function at the α9α10-nAChR” value against human α9α10-nAChR [1] (maximal inhibition) is given as 100%. Also, the inhibitory constant (Ki) at human α3β4-nAChR subtype was determined as 0.365 µM. On human α9α10-nAChR [2], the “partial agonism … (AUC)” value is 0.2–3 % of ACh control; the “partial agonism of α9α10-nAChRs, efficacy (peak current)” value is 5–55 % of ACh control; the “recovery of rebound current at α9α10-nAChR (in words)” value is “almost complete recovery”; the “residual ACh-induced current at α9α10-nAChR (in words)” value is listed as “highest residual ACh-induced currents”.
